Among the data in patent publication US20240261417A1, “SOS1 DEGRADING AGENT AND PREPARATION METHOD THEREFOR AND APPLICATION THEREOF” (SHANGHAI LEADINGTAC PHARMACEUTICAL CO. LTD., priority 2021, published 2024) are DC50 and Dmax values, retold here.

For this test, the target named is T1, SOS1 protein (Homo sapiens, UniProt Q07889).
T1 sequence (Q07889 1-1333): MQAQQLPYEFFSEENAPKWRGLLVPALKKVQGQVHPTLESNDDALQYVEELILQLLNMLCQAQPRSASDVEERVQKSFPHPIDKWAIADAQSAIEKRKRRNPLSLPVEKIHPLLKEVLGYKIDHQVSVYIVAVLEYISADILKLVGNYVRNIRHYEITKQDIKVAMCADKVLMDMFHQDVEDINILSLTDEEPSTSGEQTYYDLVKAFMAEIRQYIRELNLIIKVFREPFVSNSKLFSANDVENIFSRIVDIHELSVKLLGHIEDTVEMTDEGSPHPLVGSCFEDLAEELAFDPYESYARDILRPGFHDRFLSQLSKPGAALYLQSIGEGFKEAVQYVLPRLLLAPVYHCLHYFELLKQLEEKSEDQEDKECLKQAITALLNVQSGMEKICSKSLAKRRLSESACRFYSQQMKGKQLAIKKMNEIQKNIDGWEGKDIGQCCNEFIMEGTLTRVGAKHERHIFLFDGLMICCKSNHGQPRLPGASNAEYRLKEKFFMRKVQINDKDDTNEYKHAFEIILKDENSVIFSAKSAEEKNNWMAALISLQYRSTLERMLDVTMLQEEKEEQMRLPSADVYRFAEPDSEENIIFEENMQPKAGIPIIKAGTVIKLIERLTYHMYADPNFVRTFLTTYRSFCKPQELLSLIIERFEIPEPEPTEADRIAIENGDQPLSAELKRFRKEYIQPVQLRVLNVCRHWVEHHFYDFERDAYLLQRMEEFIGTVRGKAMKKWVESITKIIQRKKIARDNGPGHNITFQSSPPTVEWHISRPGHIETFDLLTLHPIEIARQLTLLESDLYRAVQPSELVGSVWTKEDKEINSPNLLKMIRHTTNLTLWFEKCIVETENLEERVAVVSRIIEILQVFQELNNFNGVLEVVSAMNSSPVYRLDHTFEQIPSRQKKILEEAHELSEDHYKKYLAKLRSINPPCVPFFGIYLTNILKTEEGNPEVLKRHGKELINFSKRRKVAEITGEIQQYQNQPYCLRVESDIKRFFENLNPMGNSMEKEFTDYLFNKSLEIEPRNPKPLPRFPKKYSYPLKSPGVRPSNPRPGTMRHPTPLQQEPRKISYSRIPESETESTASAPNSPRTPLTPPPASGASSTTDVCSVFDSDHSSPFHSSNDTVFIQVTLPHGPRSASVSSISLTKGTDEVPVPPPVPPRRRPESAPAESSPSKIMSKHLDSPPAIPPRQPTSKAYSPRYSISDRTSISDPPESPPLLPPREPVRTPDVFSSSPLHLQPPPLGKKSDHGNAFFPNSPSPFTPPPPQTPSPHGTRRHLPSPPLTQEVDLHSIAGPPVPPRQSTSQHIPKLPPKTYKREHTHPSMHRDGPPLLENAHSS
Description: SOS1 degradation assay (Western blot), NCI-H358 cells. In kind it is cell-based. Details: The degradation of SOS1 by the compounds was investigated on KRAS G12C mutant human non-small cell lung cancer cells NCI-H358; host or cells: NCI-H358 (human cancer cell lines). The note with it: SOS1 degradation, NCI-H358 cells, 24 h, Western blot; for DC50: read-out: NCI-H358 (G12C) DC50; for Dmax: read-out: NCI-H358 (G12C) Dmax. As to the method: The specific procedures were as follows:
0.95 mL of cells were seeded into each well of a 24-well cell culture plate to achieve a cell density of 5×10^5 cells/well; the cell plate was incubated in an incubator at 37° C. with 5% CO2 overnight. Then 50 μL of the compound solution after dilution was added to each of the wells with the corresponding cells, so that the final concentration of the compound was in a range of 0.03-3000 nM. […] After dosing, the cell plate was incubated in an incubator at 37° C. with 5% CO2 for 24 h. […] After the plate was left to stand on ice for 30 min, the protein lysate in each well was transferred to a 1.5 mL centrifuge tube and centrifuged at 15000 g for 20 min at 4° C. The cell lysate supernatant after centrifugation was cryopreserved at −80° C. for testing and was used for determining the degradation level of the SOS1 protein by a WB method. The concentration of total protein in the cell lysate supernatant was determined using the BCA Protein Quantification Kit (Tiangen, PA115-02).
The concentration of total protein in the cell lysate was determined by BCA. The total protein was adjusted to 0.5 μg/μL with PBS and 5× SDS-PAGE protein loading buffer (Beyotime, P0015L), incubated in a water bath at 100° C. for 15 min, incubated in an ice bath on ice for 5 min, centrifuged at 14000 g for 1 min at 4° C., and mixed well as a loading sample for WB. Protein electrophoresis was performed on a precast gel (KeyGEN, KGMGO10W15) with a loading volume of 10 μL (total protein: 5 μg) using a Tris-MOPS-SDS running solution (Adamas, P1598253) at a constant voltage of 120 V for 55 min. After the electrophoresis, the protein on the gel strip was transferred to a PVDF membrane at a constant current of 250 mA for 65 min. After the membrane transfer, the membrane was incubated in 1× QuickBlock blocking buffer (Beyotime, P0235) for 30 min at room temperature. […] The protein map was subjected to gray value analysis by the chemiluminescence imaging system from Clinx. […] Then the degradation rate was calculated by comparing the gray correction value with the gray correction value of the control group. Then nonlinear curve fitting was performed by GraphPad Prism 8 in the logarithmic concentration-inhibition rate to obtain the DC50 and Dmax values of the compounds.
(Immunoblotting shows a protein as a band on a membrane.)

As usually defined, the DC50 is the concentration at which degradation of the target reaches its halfway point. What is called Dmax is the greatest extent of degradation seen. For `COc1cc2nc(C)nc(N[C@H](C)c3cc(N)cc(C(F)(F)F)c3)c2cc1[C@H]1CC[C@H](C(=O)N2CCC(CCCC3CCN(C(=O)c4ccc(Cl)c(N5CCC(=O)NC5=O)c4)CC3)CC2)CC1` [Example 14, 1-(5-(4-(3-(1-((1R,4R)-4-(4-(((R)-1-(3-amino-5-(trifluoromethyl)phenyl)ethyl)amino)-7-methoxy-2-methylquinazolin-6-yl)cyclohexane-1-carbonyl)piperidin-4-yl)propyl)piperidine-1-carbonyl)-2-chlorophenyl)dihydropyrimidine-2,4(1H,3H)-dione], the DC50 is less than 50 nM and the Dmax fell in the range of 50 to 80%.

Turning to `COc1cc2nc(C)nc(N[C@H](C)c3cc(N)cc(C(F)(F)F)c3)c2cc1[C@H]1CC[C@H](C(=O)N2CCN(CCOC3CCN(C(=O)c4ccc(Cl)c(N5CCC(=O)NC5=O)c4)CC3)CC2)CC1` [Example 30, 1-(5-(4-(2-(4-((1R,4R)-4-(4-(((R)-1-(3-amino-5-(trifluoromethyl)phenyl)ethyl)amino)-7-methoxy-2-methylquinazolin-6-yl)cyclohexane-1-carbonyl)piperazin-1-yl)ethoxy)piperidine-1-carbonyl)-2-chlorophenyl)dihydropyrimidine-2,4(1H,3H)-dione], the half-maximal degradation concentration (DC50) lay within 1000 to 10000 nM and the Dmax was less than 30%.

With `COc1cc2nc(C)nc(N[C@H](C)c3cc(-c4c(Cl)cccc4CN(C)C)cs3)c2cc1[C@H]1CC[C@H](C(=O)N2CCC(CCOCC3CCN(c4ccc5c(c4)C(=O)N(C4CCC(=O)NC4=O)C5=O)CC3)CC2)CC1` (stereo partly drawn) [Example 41], the DC50 fell in the range of 100 to 500 nM and the Dmax was 80 to 100%.

`Cc1nc(N[C@H](C)c2cc(N)cc(C(F)(F)F)c2)c2cc(-c3ccn(CCCN(C)CC4CCC5(CC4)CCN(C(=O)c4ccc(Cl)c(N6CCC(=O)NC6=O)c4)CC5)c(=O)c3)c(C)cc2n1` [Example 42, (R)-1-(5-(9-(((3-(4-(4-((1-(3-amino-5-(trifluoromethyl)phenyl)ethyl)amino)-2,7-dimethylquinazolin-6-yl)-2-oxopyridin-1(2H)-yl)propyl)(methyl)amino)methyl)-3-azaspiro[5.5]undecane-3-carbonyl)-2-chlorophenyl)dihydropyrimidine-2,4(1H,3H)-dione]: the DC50 was 1000 to 10000 nM and the Dmax is 30 to 50%.

As to `COc1cc2nc(C)nc(N[C@H](C)c3cccc(C(F)(F)F)c3F)c2cc1[C@H]1CC[C@H](C(=O)N2CCN(CC3CCC4(CC3)CCN(C(=O)c3ccc(Cl)c(N5CCC(=O)NC5=O)c3)CC4)CC2)CC1` [Example 16, 1-(2-chloro-5-(9-((4-((1R,4R)-4-(4-(((R)-1-(2-fluoro-3-(trifluoromethyl)phenyl)ethyl)amino)-7-methoxy-2-methylquinazolin-6-yl)cyclohexane-1-carbonyl)piperazin-1-yl)methyl)-3-azaspiro[5.5]undecane-3-carbonyl)phenyl)dihydropyrimidine-2,4(1H,3H)-dione], the DC50 is 500 to 1000 nM and the Dmax was 50 to 80%.

Regarding `COc1cc2nc(C)nc(N[C@H](C)c3cc(N)cc(C(F)(F)F)c3)c2cc1[C@H]1CC[C@H](C(=O)N2CCN(CC3CCC4(CC3)CCN(C(=O)c3ccc(N5CCC(=O)NC5=O)cc3)CC4)CC2)CC1` [Example 22, 1-(4-(9-((4-((1R,4R)-4-(4-(((R)-1-(3-amino-5-(trifluoromethyl)phenyl)ethyl)amino)-7-methoxy-2-methylquinazolin-6-yl)cyclohexane-1-carbonyl)piperazin-1-yl)methyl)-3-azaspiro[5.5]undecane-3-carbonyl)phenyl)dihydropyrimidine-2,4(1H,3H)-dione], the half-maximal degradation concentration (DC50) lay in the range of 1000 to 10000 nM and the greatest degradation seen (Dmax) is 30 to 50%.
